Values of other authors, collected in patent US20140045801A1, “PRAMIPEXOLE TRANSDERMAL DELIVERY FOR SEVERE HEADACHES” (MYLAN INC., priority 2012, published 2014).

Conditions: free base; moderate lipophilicity

CCCN[C@H]1CCc2nc(N)sc2C1 [Pramipexole free base, Pramipexole]
log P: 2.35
